In US8865734B2 (priority 2010, dated 2014):
Converted amounts (≈) assume the structure as drawn. Structures can show the parent of a compound that is named as a salt.

Tests used:
[1] = system: in vitro grown Mycobacteria (M. tuberculosis); assay: QUM: Quantification of in vitro grown Mycobacteria (in vitro growth fluorescence assay); type: cell-based; details: Mycobacterium tuberculosis; MIC, 80% bacterial growth inhibition; in vitro growth; read-out: QUM
In short: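 Mycobacterium tuberculosis grown in vitro was quantified by fluorescence across compound dose responses. MIC is defined as the minimum concentration producing 80% growth inhibition.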

[2] = system: M. tuberculosis inside the host macrophage; assay: QIM: Quantification of Intracellular Mycobacteria (intracellular growth assay, phenotypic cell-based); details: Mycobacterium tuberculosis; MIC, 80% bacterial growth inhibition; intracellular growth; read-out: QIM
In short: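 Phenotypic high-content assay measuring M. tuberculosis multiplication inside host macrophages, run as dose response. MIC is the minimum compound concentration giving 80% bacterial growth inhibition.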

SMILES | melting point | MIC [1] | MIC [2]
CCc1nc2cc(Cl)ccn2c1C(=O)NCc1ccc(N2CCN(c3ccc(F)cc3)CC2)cc1 (as salt: hydrochloride) [Compound 177, 7-Chloro-2-ethyl-N-(4-(4-(4-fluorophenyl)piperazin-1-yl)benzyl)imidazo[1,2-a]pyridine-3-carboxamide trihydrochloride] | 204.4 to 206.9 °C | – | –
CCc1nc2ccc(OC)cn2c1C(=O)NCc1ccc(N2CCN(c3ccc(F)cc3)CC2)cc1 [Compound 112, 2-Ethyl-N-(4-(4-(4-fluorophenyl)piperazin-1-yl)benzyl)-6-methoxyimidazo[1,2-a]pyridine-3-carboxamide] | 173.8 °C | < 1 µM | –
CCc1nc2ccc(Cl)cn2c1C(=O)NCC1CCCc2c1cnn2-c1ccc(OC(F)(F)F)cc1 (centres unmarked) [Compound 237, 6-Chloro-2-ethyl-N-((1-(4-(trifluoromethoxy)phenyl)-4,5,6,7-tetrahydro-1,1-indazol-4-yl)methyl)imidazo[1,2-a]pyridine-3-carboxamide] | – | > 20 µM | > 20 µM
CCc1nc2ccc(Cl)cn2c1C(=O)NCC1CCCc2c1cnn2-c1ccc(F)cc1 (centres unmarked) [Compound 238, 6-Chloro-2-ethyl-N-((1-(4-fluorophenyl)-4,5,6,7-tetrahydro-1H-indazol-4-yl)methyl) imidazo[1,2-a]pyridine-3-carboxamide] | – | > 20 µM | > 20 µM
CCc1nc2ccc(Cl)cn2c1CNc1ccc(OC(F)(F)F)cc1 [Compound 240, N-((6-Chloro-2-ethylimidazo[1,2-a]pyridin-3-yl)methyl)-4-(trifluoromethoxy)aniline] | – | > 20 µM | > 20 µM
CCc1nc2cc(Cl)ccn2c1-c1nnc(CN2CCN(c3ccc(OC(F)(F)F)cc3)CC2)o1 [Compound 244, 2-(7-Chloro-2-ethylimidazo[1,2-a]pyridin-3-yl)-5-((4-(4-(trifluoromethoxy)phenyl)piperazin-1-yl)methyl)-1,3,4-oxadiazole] | – | 1 to 20 µM (≈ 0.507 to 10.1 µg/mL) | 1 to 20 µM (≈ 0.507 to 10.1 µg/mL)
CCc1nc2ccc(Cl)cn2c1-c1nc(Cc2ccc(Oc3ccc(F)cc3)cc2)no1 [Compound 245, 5-(6-Chloro-2-ethylimidazo[1,2-a]pyridin-3-yl)-3-(4-(4-fluorophenoxy)benzyl)-1,2,4-oxadiazole] | 129.9 °C | 1 to 20 µM (≈ 0.449 to 8.98 µg/mL) | –
CCNC(=O)c1c(CC)nc2ccc(Cl)cn12 [Compound 246, 6-Chloro-N,2-diethylimidazo[1,2-a]pyridine-3-carboxamide] | 176.7 °C | > 20 µM | –
CCc1nc2ccc(Cl)cn2c1C(=O)NCC(C)C [Compound 247, 6-Chloro-2-ethyl-N-isobutylimidazo[1,2-a]pyridine-3-carboxamide] | 162.2 °C | > 20 µM | –
CCc1nc2cc(Cl)ccn2c1C(=O)NCc1cccc(-c2ccc(OC(F)(F)F)cc2)c1 [Compound 248, 7-Chloro-2-ethyl-N-((4′-(trifluoromethoxy)biphenyl-3-yl)methyl)imidazo[1,2-a]pyridine-3-carboxamide] | 192.6 °C | < 1 µM | –
CCc1nc2ccc(F)cn2c1C(=O)NCc1ccc(Oc2ccc(OC(F)(F)F)cc2)cc1 [Compound 253, 2-Ethyl-6-fluoro-N-(4-(4-(trifluoromethoxy)phenoxy)benzyl)imidazo[1,2-a]pyridine-3-carboxamide] | 133.4 °C | < 1 µM | –
CCc1nc2ccc(Br)cn2c1C(=O)NCc1ccc(Oc2ccc(OC(F)(F)F)cc2)cc1 [Compound 254, 6-Bromo-2-ethyl-N-(4-(4-(trifluoromethoxy)phenoxy)benzyl)imidazo[1,2-a]pyridine-3-carboxamide] | 152.9 °C | < 1 µM | –
CCc1nc2cc(C)ccn2c1C(=O)NCc1ccc(Oc2ccc(OC(F)(F)F)cc2)cc1 [Compound 256, 2-Ethyl-7-methyl-N-(4-(4-(trifluoromethoxy)phenoxy)benzyl)imidazo[1,2-a]pyridine-3-carboxamide] | 133.6 °C | < 1 µM | –
CCc1nc2c(F)cccn2c1C(=O)NCc1ccc(Oc2ccc(OC(F)(F)F)cc2)cc1 [Compound 257, 2-Ethyl-8-fluoro-N-(4-(4-(trifluoromethoxy)phenoxy)benzyl)imidazo[1,2-a]pyridine-3-carboxamide] | 105.6 °C | < 1 µM | –
CCc1nc2ccc(F)cn2c1C(=O)NCc1ccc(OCc2ccc(OC(F)(F)F)cc2)cc1 [Compound 258, 2-Ethyl-6-fluoro-N-(4-(4-(trifluoromethoxy)benzyloxy)benzyl)imidazo[1,2-a]pyridine-3-carboxamide] | – | < 1 µM | < 1 µM
CCc1nc2ccc(Br)cn2c1C(=O)NCc1ccc(OCc2ccc(OC(F)(F)F)cc2)cc1 [Compound 259, 6-Bromo-2-ethyl-N-(4-(4-(trifluoromethoxy)benzyloxy)benzyl)imidazo[1,2-a]pyridine-3-carboxamide] | 189.7 °C | < 1 µM | –
CCc1nc2ccccn2c1C(=O)NCc1ccc(OCc2ccc(OC(F)(F)F)cc2)cc1 [Compound 260, 2-Ethyl-N-(4-(4-(trifluoromethoxy)benzyloxy)benzyl)imidazo[1,2-a]pyridine-3-carboxamide] | 138.7 °C | < 1 µM | –

SMILES | melting point | MIC [1] | MIC [2]
CCc1nc2ccccn2c1C(=O)NCc1ccc(N(C)Cc2ccc(OC(F)(F)F)cc2)cc1 [Compound 263, 2-Ethyl-N-(4-(methyl(4-(trifluoromethoxy)benzyl)amino)benzyl)imidazo[1,2-a]pyridine-3-carboxamide] | – | < 1 µM | < 1 µM
CCc1nc2cc(Cl)ccn2c1C(=O)NCc1ccc(N2CCN3CCCC3C2)cc1 (centres unmarked) [Compound 265, 7-Chloro-2-ethyl-N-(4-(hexahydropyrrolo[1,2-a]pyrazin-2(1H)-yl)benzyl)imidazo[1,2-a]pyridine-3-carboxamide] | 159.1 °C | > 20 µM | –
CCc1nc2ccc(Cl)cn2c1C(=O)NCc1ccc(N2CCN3CCCC3C2)cc1 (centres unmarked) [Compound 266, 6-Chloro-2-ethyl-N-(4-(hexahydropyrrolo[1,2-a]pyrazin-2(1H)-yl)benzyl)imidazo[1,2-a]pyridine-3-carboxamide] | 163 °C | > 20 µM | –
CCc1nc2cc(Cl)ccn2c1C(=O)NCc1ccc(N2CCC3CCCCC3C2)cc1 (centres unmarked) [Compound 268, 7-Chloro-2-ethyl-N-(4-(octahydroisoquinolin-2(1H)-yl)benzyl)imidazo[1,2-a]pyridine-3-carboxamide] | 174.2 °C | < 1 µM | –
CCc1nc2cc(Cl)ccn2c1C(=O)NCc1ccc(N2CCC(=O)CC2)cc1 [Compound 269, 7-Chloro-2-ethyl-N-(4-(4-oxopiperidin-1-yl)benzyl)imidazo[1,2-a]pyridine-3-carboxamide] | – | < 1 µM | 1 to 20 µM (≈ 0.411 to 8.22 µg/mL)
C=C1CCN(c2ccc(CNC(=O)c3c(CC)nc4cc(Cl)ccn34)cc2)CC1 [Compound 271, 7-Chloro-2-ethyl-N-(4-(4-methylenepiperidin-1-yl)benzyl)imidazo[1,2-a]pyridine-3-carboxamide] | 168.3 °C | < 1 µM | –
CCc1nc2ccc(Cl)cn2c1C(=O)NCc1ccc(N2CCCCC2C)cc1 (centres unmarked) [Compound 272, 6-chloro-2-ethyl-N-(4-(2-methylpiperidin-1-yl)benzyl)imidazo[1,2-a]pyridine-3-carboxamide] | – | < 1 µM | < 1 µM
CCc1nc2cc(Cl)ccn2c1C(=O)NCc1ccc(N2CCC(C)(C)CC2)cc1 [Compound 274] | 121.3 °C | < 1 µM | –
CCc1nc2ccc(Cl)cn2c1C(=O)NCc1ccc(N2CCC(C(F)(F)F)CC2)cc1 [Compound 275, 6-Chloro-2-ethyl-N-(4-(4-(trifluoromethyl)piperidin-1-yl)benzyl)imidazo[1,2-a]pyridine-3-carboxamide] | 197.9 °C | 1 to 20 µM (≈ 0.465 to 9.3 µg/mL) | –
CCc1nc2cc(Cl)ccn2c1C(=O)NCc1ccc(N2CCC(C(F)(F)F)CC2)cc1 [Compound 276, 7-Chloro-2-ethyl-N-(4-(4-(trifluoromethyl)piperidin-1-yl)benzyl)imidazo[1,2-a]pyridine-3-carboxamide] | 209.4 °C | > 20 µM | –
CCc1nc2ccc(Cl)cn2c1C(=O)NCc1ccc(N2CCC(F)(F)CC2)cc1 [Compound 277, 6-chloro-N-(4-(4,4-difluoropiperidin-1-yl)benzyl)-2-ethylimidazo[1,2-a]pyridine-3-carboxamide] | 194.2 °C | 1 to 20 µM (≈ 0.433 to 8.66 µg/mL) | –
CCc1nc2cc(Cl)ccn2c1C(=O)NCc1ccc(N2CCC(F)(F)CC2)cc1 [Compound 278, 7-Chloro-N-(4-(4,4-difluoropiperidin-1-yl)benzyl)-2-ethylimidazo[1,2-a]pyridine-3-carboxamide] | 166.3 °C | 1 to 20 µM (≈ 0.433 to 8.66 µg/mL) | –
CCc1nc2ccc(Cl)cn2c1C(=O)NCc1ccc(N2CCC(COC(C)C)CC2)cc1 [Compound 291, 6-Chloro-2-ethyl-N-(4-(4-(isopropoxymethyl)piperidin-1-yl)benzyl)imidazo[1,2-a]pyridine-3-carboxamide] | – | < 1 µM | < 1 µM
CCc1nc2cc(Cl)ccn2c1C(=O)NCc1ccc(N2CCC(COC(C)C)CC2)cc1 [Compound 292, 7-Chloro-2-ethyl-N-(4-(4-(isopropoxymethyl)piperidin-1-yl)benzyl)imidazo[1,2-a]pyridine-3-carboxamide] | – | < 1 µM | < 1 µM
CCc1nc2ccc(F)cn2c1C(=O)NCc1ccc(N2CCOCC2)cc1 [Compound 316, 2-Ethyl-6-fluoro-N-(4-morpholinobenzyl)imidazo[1,2-a]pyridine-3-carboxamide] | – | 1 to 20 µM (≈ 0.382 to 7.65 µg/mL) | 1 to 20 µM (≈ 0.382 to 7.65 µg/mL)
CCc1nc2cc(N3CCN(c4ccc(F)cc4)CC3)ccn2c1C(=O)NCc1ccc(N2CCOCC2)cc1 [Compound 329, 2-Ethyl-7-(4-(4-fluorophenyl)piperazin-1-yl)-N-(4-morpholinobenzyl)imidazo[1,2-a]pyridine-3-carboxamide] | – | > 20 µM | > 20 µM
